We go through 9 compounds from patent US7709526B2, “Use of cyclolignans and new cyclolignans” (Biovitrum AB, priority 2001, dated 2010).

Read-outs that look alike come from different tables or passages of the source.

In series [1] the test system is HL60 acute myeloid leukemia cells. As to the kind of experiment: Viability of leukemia cells, HL60. The series is classed as cell-based, human. The note with it: HL60, 72 h, read-out: IC50 for viability of leukemia cell lines. On the procedure:
(§1) The human chronic myeloid leukemia K562/S and K562/Vcr30 lines and the acute myeloid leukemia cell lines HL60/0 and HL60/Nov were obtained from ATCC. The K562/S and HL60/0 are wild type (non-resistant) cells, whereas K562/Vcr30 and HL60/Nov are cytostatic-resistant sublines. All leukemia cell lines were cultured in RPMI 1640 medium supplemented with 10% fetal bovine serum and with 2 mM glutamine, 1% benzyl-penicillin and streptomycin. The cells were grown in tissue culture flasks maintained at 95% air/5% CO2 atmosphere at 37° C. in a humidified incubator. For the experiments 25,000 cells were cultured in 60-mm plastic dishes or 96-well plastic plates. The experiments on leukemia cells were performed in collaboration with Associate professor Sigurd Vitols, Department of Pharmacology, Karolinska Hospital (Stockholm, Sweden).
(§2) Cell proliferation kit II (Roche Inc.) is based on calorimetric change of the yellow tetrazolium salt XTT in orange formazan dye by the respiratory chain of viable cells (Roehm, N W, et al., J Immunol Methods 142:257-265, 1991). Cells seeded at a concentration of 5000/well in 100 μl medium in a 96-well plate were treated with different drugs in the given concentration. After 24 or 48 h the cells were incubated, according to the manufacturer's protocol, with XTT labelling mixture. After 4 h the formazan dye is quantified using a scanning multiwell spectrophotometer with a 495-nm filter. The absorbance is directly correlated with number of viable cells. The standard absorbance curve was drawn by means of untreated cells seeded at a concentration of from 1000 to 10 000 cells/well with an increasing rate of 1000 cells/well. All standards and experiments were performed in triplicates.
(§3) The leukemia cell lines K562/S, K562/Vcr 30, HL60/0 and HL60/Nov were proven to express the IGF-1R. This was assayed by Western blotting analysis, as described in Methods and Experiment 1 and 2. The 4 leukemia cell lines were seeded in 96-well plates (medium volume in a well was 100 μl), in RPMI40 medium supplemented with fetal calf serum. After 24 h podophyllotoxin, deoxypodophyllotoxin and other derivatives were added at different concentrations for 72 h. Cell viability was then assayed (see above). IC50 values for each inhibitor and cell lines are shown below (Table 5). The results are based on 3 different experiments.

The target in series [2] is T1, IGF-1R (Homo sapiens, UniProt P08069). As to the kind of experiment: IGF-1R phosphorylation/autophosphorylation in intact FM55 melanoma cells (immunoprecipitation, Western blotting, OD). More on the design: The cells were then isolated and subjected to immuno-precipitation of the IGF-1R; endogenous in cells; host or cells: FM55 melanoma cells. The conditions noted are these: for Level of IGF-1R phosphorylation in intact cells: OD, control cells = 100%. The series is classed as cell-based. Here is the method:
The isolated cells were lyzed in 10 ml ice-cold PBSTDS containing protease inhibitors (Carlberg, M., et al., J Biol Chem 271:17453-17462, 1996). 50 μl protein A or G agarose was added in 1 ml sample and incubated for 15 min at 4° C. on an orbital shaker. After centrifugation for 10 min at 10,000 r/min at 4° C. the supernatant was saved. The protein content was determined by a dye-binding assay with a reagent purchased from Bio-Rad. Bovine serum albumin was used as a standard. 15 μl Protein G Plus agarose and 5 μl anti-IGF-1R were added. After a 3 h incubation at 4° C. on an orbital shaker the precipitate was collected by pulse centrifugation in a micro centrifuge at 14,000×g for 10 s. The supernatant was discarded and the pellet was washed 3 times with PBSTDS.
Protein samples were solved in a 2×-sample buffer containing Laemmli buffer and 0.5% […] and boiled for 5 min at 96° C. Samples were separated by SDS-PAGE with a 4% stacking gel and 7.5% separation gel. Molecular weight markers (Bio Rad, Sweden) were run simultaneously in all experiments.
Following SDS-PAGE the proteins were transferred overnight to nitro-cellulose membranes (Hybond, Amersham, UK) and then blocked for 1 h at room temperature in a solution of 4% skimmed milk powder and 0.02% Tween 20 in PBS, pH 7.5. Incubations with the primary antibodies were performed for 1 h at room temperature, followed by 3 washes with PBS with Tween and incubation with the second antibody for 1 h room temperature. After another 3 washes the membranes were incubated with Streptavidin-labelled horseradish peroxidase for 30 min and then detected using Amersham ECL system (Amersham, UK) The films were scanned by Fluor-S (BioRad).
Melanoma cells (line FM55) were seeded in 6-cm dishes, at a concentration of 10,000 cells/cm^2 in Minimal Essential Medium supplemented with 10% fetal calf serum (FCS). […] Treatment with 0 μM represents untreated controls. The cells were then isolated and subjected to immuno-precipitation of the IGF-1R. The immunoprecipitates, containing purified IGF-1R, were fractionated by gel electrophoresis. Phosphorylation of IGF-1R was detected by an anti-phosphotyrosine antibody using Western blotting. The obtained signals represent phosphorylated IGF-1R and the intensity of signals represents amounts of phosphorylated IGF-1R. Details of the methods used are described above. The intensities are quantified by a scanner, which measures the optical density (OD) of the signals. For the control cells the OD is set at 100%. The blank (OD 0%) represents the background. The results given in Table 1 below are mean values of 3 experiments.
FM 55 melanoma cells were cultured in the same way as described in Experiment 1. When reaching a density of 65,000 cells/cm^2 in the dishes, they were treated for 1 h with 0.05 μM podophyllotoxin, deoxypodophyllotoxin, acetylpodophyllotoxin, epipodophyllotoxin, 4′-demethyl-podophyllotoxin and podophyllotoxone. The cells were then harvested for assay and quantification of IGF-1R autophosphorylation as described above. The values shown in Table 2 represent means of 3 experiments.
Target sequence in this assay (P08069 31-1367): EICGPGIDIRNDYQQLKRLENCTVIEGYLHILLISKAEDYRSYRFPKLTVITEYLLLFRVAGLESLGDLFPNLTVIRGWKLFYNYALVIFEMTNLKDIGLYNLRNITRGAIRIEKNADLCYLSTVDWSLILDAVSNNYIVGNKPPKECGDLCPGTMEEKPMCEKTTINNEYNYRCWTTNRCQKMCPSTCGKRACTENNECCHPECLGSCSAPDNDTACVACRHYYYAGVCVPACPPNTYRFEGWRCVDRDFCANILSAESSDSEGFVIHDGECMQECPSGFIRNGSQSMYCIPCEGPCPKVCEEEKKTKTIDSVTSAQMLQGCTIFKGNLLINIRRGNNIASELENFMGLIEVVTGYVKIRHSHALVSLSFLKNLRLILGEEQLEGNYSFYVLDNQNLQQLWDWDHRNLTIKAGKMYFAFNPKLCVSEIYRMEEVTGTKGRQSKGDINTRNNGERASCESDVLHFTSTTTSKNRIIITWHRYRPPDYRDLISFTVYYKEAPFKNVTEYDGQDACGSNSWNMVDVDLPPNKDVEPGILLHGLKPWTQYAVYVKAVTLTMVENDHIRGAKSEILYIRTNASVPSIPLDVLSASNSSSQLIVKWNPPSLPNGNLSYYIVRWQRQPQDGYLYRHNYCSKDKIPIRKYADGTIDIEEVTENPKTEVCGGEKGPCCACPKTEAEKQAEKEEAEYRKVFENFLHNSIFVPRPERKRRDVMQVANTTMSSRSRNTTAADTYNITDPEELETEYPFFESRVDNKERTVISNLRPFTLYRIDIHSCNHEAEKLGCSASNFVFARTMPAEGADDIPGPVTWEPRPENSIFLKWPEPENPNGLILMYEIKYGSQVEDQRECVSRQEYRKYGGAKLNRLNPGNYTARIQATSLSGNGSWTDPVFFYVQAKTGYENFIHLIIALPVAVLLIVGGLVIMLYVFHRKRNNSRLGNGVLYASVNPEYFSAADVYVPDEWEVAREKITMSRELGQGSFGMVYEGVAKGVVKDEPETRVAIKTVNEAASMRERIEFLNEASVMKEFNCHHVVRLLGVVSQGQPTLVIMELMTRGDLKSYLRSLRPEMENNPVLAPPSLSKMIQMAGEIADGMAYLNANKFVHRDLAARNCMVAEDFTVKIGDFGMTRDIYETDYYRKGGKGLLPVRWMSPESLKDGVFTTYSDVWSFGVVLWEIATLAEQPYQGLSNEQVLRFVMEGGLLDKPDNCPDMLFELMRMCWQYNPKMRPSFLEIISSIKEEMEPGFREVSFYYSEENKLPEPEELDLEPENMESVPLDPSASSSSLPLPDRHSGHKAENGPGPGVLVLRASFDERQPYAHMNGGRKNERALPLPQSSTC
On the technique in general: Immunoblotting shows a protein as a band on a membrane.

The subject of series [3] is K562/Vcr30 chronic myeloid leukemia cells (cytostatic-resistant). Kind of series: Viability of leukemia cells, K562/Vcr30. The series is classed as cell-based, human. The note with it: K562/Vcr30, 72 h, read-out: IC50 for viability of leukemia cell lines. Here is the method: as §1, §2, §3
In series [4] the test system is HL60/Nov acute myeloid leukemia cells (cytostatic-resistant). As to the kind of experiment: Viability of leukemia cells, HL60/Nov. The series is classed as cell-based, human. The conditions noted are these: read-out: IC50 for viability of leukemia cell lines. Here is the method:
as §1, §2, §3

A further series deals with rats. The note with it: cited from earlier work.
Series [5] relates to K562/S chronic myeloid leukemia cells. As to the kind of experiment: Viability of leukemia cells, K562/S. The series is classed as cell-based, human. The note with it: 72 h, read-out: IC50 for viability of leukemia cell lines. On the procedure: as §1, §2, §3
A further series has as its system FM55 melanoma cells. As to the kind of experiment: Cell viability (XTT), FM55. The class given is cell-based, human. Here is the method: as §2
5 different types of cell lines were seeded in 96-well plates (medium volume in a well was 100 μl), at a concentration of 10,000 cells/cm^2 in Minimal Essential Medium supplemented with fetal calf serum. When the cells had reached a concentration of 65,000 cells/cm^2, they were treated with different doses of podophyllotoxin and deoxypodophyllotoxin for 48 h. Cell viability was then assayed (see above). IC50 values for each inhibitor and cell line, calculated as the concentration, resulting in a 50% decrease in cell survival, are shown below. The results are based on 4 different experiments.
FM55 melanoma cells were cultured in the same way as described in Experiment 3 and were treated with different doses of podophyllotoxin analogues as described in Experiment 3.

The target in series [6] is T1, IGF-1R. Kind of series: Effect on IGF-1R (method not given).
Target sequence in this assay (P08069 31-1367, species assumed): as the sequence (P08069 31-1367) above
The next series deals with microtubules. The conditions noted are these: cell free systems; cited from earlier work.
Another series deals with T2, IGF-1R beta-subunit (Homo sapiens, UniProt P08069).
T2 construct: host or cells: melanoma cells
The note with it: melanoma cells, 15 microM; cited from earlier work.

Series [7] deals with MCF-7 breast cancer cells. As to the kind of experiment: Cell viability (XTT), MCF-7. The class given is cell-based, human. The note with it: 48 h. On the procedure: as §2
(§4) 5 different types of cell lines were seeded in 96-well plates (medium volume in a well was 100 μl), at a concentration of 10,000 cells/cm^2 in Minimal Essential Medium supplemented with fetal calf serum. When the cells had reached a concentration of 65,000 cells/cm^2, they were treated with different doses of podophyllotoxin and deoxypodophyllotoxin for 48 h. Cell viability was then assayed (see above). […]

A further series concerns SK-MEL-28 melanoma cells. Kind of series: Cell viability (XTT), SK-MEL-28. The note with it: 48 h. The series is classed as cell-based, human. On the procedure:
as §2, §4
Background: Tetrazolium dyes change colour on reduction, which living cells bring about.

A further series can be described thus: Water solubility. The series is classed as physicochemical.
The mark [8] stands for this setting: FM55 cells, 0.05 μM, 1 h, podophyllotoxin = 1, mean of 3.
Where [9] appears, read: FM55, Experiment 4 (Table 4), read-out: IC50 for viability of FM55 cells.
Where [10] appears, read: FM55 cells, 1 μM, 1 h, mean of 3.
Setting [11] is: FM55 cells, 15 μM, 1 h, mean of 3.
Where [12] appears, read: FM55 cells, 60 μM, 1 h, mean of 3.

T2 sequence (P08069 31-1367): as above

By IC50 is commonly meant the point on the concentration scale where inhibition reaches its midpoint. In the case of `COc1cc([C@@H]2c3cc4c(cc3[C@@H](O)[C@H]3COC(=O)[C@H]23)OCO4)cc(OC)c1OC` [Epipodophyllotoxin, epipodophyllotoxin], the IC50 in [1] (Homo sapiens, HL-60) worked out at 127 nM; in [3] (Homo sapiens), 450 nM; in [4] (Homo sapiens, HL-60, 72 h) it was 90 nM; in series [5] (Homo sapiens) it was 195 nM. Also, the “Inhibitory effect on IGF-1R autophosphorylation in intact cells in relation to podophyllotoxin, Relative potency” value (from here on “Inhibitory effect … Relative potency”) at IGF-1R [2] (setting [8]) was determined as 0.5. Further, in the series with rats, the LD50 in rats is more than 200 mg/kg.

Regarding `COc1cc([C@@H]2c3cc4c(cc3[C@H](O)[C@H]3COC(=O)[C@H]23)OCO4)cc(OC)c1O` [4′-demethylpodophyllotoxin], the IC50 in [1] was 20 nM; in [3], 50 nM; in the series with FM55 melanoma cells (setting [9]), 40 nM; in series [4] (72 h), 18 nM; in series [5], 22 nM. At IGF-1R [2] (setting [8]), the “Inhibitory effect … Relative potency” value is on record as 0.5.

On to `COc1cc([C@@H]2c3cc4c(cc3C(=O)[C@H]3COC(=O)[C@H]23)OCO4)cc(OC)c1OC` [Podophyllotoxone, podophyllotoxone], for which the half-inhibitory concentration (IC50) in series [1], in series [3], in series [4] (72 h) and in series [5] was more than 500 nM in each case. Besides, the “Inhibitory effect … Relative potency” value on IGF-1R [2] turned out to be 0.3.

Turning to `COc1cc(C2c3cc4c(cc3C(OC3OC5COC(c6ccccc6)OC5C(O)C3O)C3COC(=O)C23)OCO4)cc(OC)c1OC` [podophyllotoxin-4,6-O-benzylidene-β-D-glucopyranoside], the “effect on IGF-1R / inhibition of IGF-1R activity (in words)” value at IGF-1R [6] is “completely disappeared”.

With `COc1cc([C@@H]2c3cc4c(cc3[C@@H](O[C@@H]3O[C@@H]5CO[C@@H](C)O[C@H]5[C@H](O)[C@H]3O)[C@H]3COC(=O)[C@H]23)OCO4)cc(OC)c1O` [Etoposide, etoposide], the effect on microtubules result in the series on microtubules is “no effect on microtubules”.

Regarding `CC/C(=C(\c1ccccc1)c1ccc(OCCN(C)C)cc1)c1ccccc1` [Tamoxifen, tamoxifen], the results for the “Level of IGF-1R phosphorylation in intact cells” value on IGF-1R [2] (setting [10]), at IGF-1R [2] (setting [11]) and on IGF-1R [2] (setting [12]) were 95%, 20% and 10%, respectively. Also, the “tyrosine phosphorylation of the IGF-1R beta-subunit” value on IGF-1R beta-subunit is “efficiently blocked”.

Take `COc1cc([C@@H]2c3cc4c(cc3C[C@H]3COC(=O)[C@@H]32)OCO4)cc(OC)c1OC` [Deoxypodophyllotoxin, deoxypodophyllotoxin]: the IC50 turned out to be 3 nM in [1]; 30 nM in series [7]; 4 nM in [3]; 40 nM in the series on SK-MEL-28 melanoma cells; 40 nM in the series with FM55 melanoma cells (setting [9]); 40 nM in the series with FM55 melanoma cells (FM55, melanoma, 48 h (Table 3), read-out: IC50 for cell viability). The concentration for half-maximal inhibition (IC50) in [4] (72 h) stood at 2 nM; in [5], 3 nM. The “inhibition of IGF-1R phosphorylation (in words)” value against IGF-1R [2] (FM55 cells, 0.05 μM, 1 h) is reported as “potent inhibitors”. Also, the “Inhibitory effect … Relative potency” value at IGF-1R [2] (setting [8]) stood at 0.8. Also, the water solubility entry in the series “Water solubility” was “about 0.01 mM”. Further, the “LD50 in rats, fold higher than podophyllotoxin” value with rats (relative to podophyllotoxin) is on record as more than 15 fold.

Turning to `COc1cc([C@@H]2c3cc4c(cc3[C@H](OC(C)=O)[C@H]3COC(=O)[C@H]23)OCO4)cc(OC)c1OC` [Acetylpodophyllotoxin, acetylpodophyllotoxin], the concentration for half-maximal inhibition (IC50) is 48 nM in series [1]; 140 nM in [3]; 30 nM in the series on FM55 melanoma cells (setting [9]); 46 nM in series [4] (72 h); 80 nM in [5]. Moreover, the “Inhibitory effect … Relative potency” value on IGF-1R [2] stood at 1.3. Moreover, at IGF-1R [2] (FM55 cells, 0.05 μM, 1 h), the “inhibition of IGF-1R phosphorylation (in words)” value is “potent inhibitors”. Moreover, in the series with rats, the LD50 in rats is on record as 185 mg/kg.

In the case of `O=c1c(-c2ccc(O)cc2)coc2cc(O)cc(O)c12` [Genistein, genistein], the “Level of IGF-1R phosphorylation in intact cells” value came out at 100% at IGF-1R [2] (setting [10]), 96% on IGF-1R [2] (setting [11]) and 35% on IGF-1R [2] (setting [12]). Moreover, the “effect on IGF-1R phosphorylation (in words)” value on IGF-1R [2] (FM55 cells, 1, 15, 60 μM, genistein statement at 60 μM) is “partial inhibitory effect”.
